We go through 20 compounds from patent US20150322001A1, “OMEGA-3 ANALOGUES” (The University of Sydney, priority 2012, published 2015).

The test system of series [1] is MDA-MB-231 cells. Nature of the series: MTT assay, inhibition of proliferation of MDA-MB-231 cells. In kind it is cell-based, human. As to conditions: MTT reduction, 24 h. As for the experimental part: The synthesized compounds given in Table 1 were tested for their activity in inhibiting the proliferation of MDA-MB-231 cells.
• 1. Cell culture and cell treatment: Breast cancer MDA-MB-231 cells were maintained in monolayers at 37° C. in DMEM containing penicillin and streptomycin, L-glutamine and 10% fetal bovine serum in an atmosphere of 95% air and 5% CO2. Cells were seeded into multi-well plates at 5×10^4 cells/mL; media was replaced 24 h later with fresh serum-free DMEM containing one of the test compounds in DMSO. DMSO was added to control cells at a final concentration of 0.1%. • 2. MTT assay: MDA-MB-231 cells were seeded in 96 well plates (0.2 mL/well), treated with compounds at 0.01, 0.1, 0.5, 1, 5 and 10 μM for 24 h. MTT (25 μL of 2.5 mg/mL solution) was added to each well for 2 h, after which MTT and media were removed. The blue formazan product formed from MTT by live cells was dissolved in DMSO (100 μL/well) and quantified spectrophotometrically at 540 nm in a multilabel counter. IC50s were calculated using GraphPad Prism (Prism 5.01). • 3. Caspase 3 activity: MDA-MB-231 cells were seeded in 96 well plates (0.2 mL/well), and were treated with compounds at 0.1, 0.5 and 1 μM for 24 h. Caspase 3 activity was quantified using the Caspase-Glo 3/7 assay kit according to manufacturer's protocol (Promega). Briefly, after 24 h treatment, fresh serum-free media was added to wells. Cells were equilibrated at room temperature for 30 min, caspase 3/7 substrate in lysis buffer was added and the luminescence was measured. Relative caspase 3/7 activity was calculated as [(luminescence in treatment−luminescence in control)/luminescence in control×100%]. • 4. Annexin V assay: MDA-MB-231 cells were seeded in 6 well plates (3 mL/well), and were treated with compounds at 0.1, 0.5 and 1 μM for 24 h. The apoptotic cells were quantified by Annexin V staining according to the manufacture's protocol (BD Biosciences). Briefly, after 24 h treatment, the media and harvested cells were collected, followed by PBS washes. Cells were stained with Annexin V and PI in binding buffer for 15 min at room temperature and quantified by flow cytometry (BD Biosciences). The apoptotic cells (%) were calculated as [(Annexin V positive cells in treatment−Annexin V positive cells in control)/Annexin V positive cells in control×100%]. • 5. Matrigel assay: MDA-MB-231 cells were trypsinized and resuspended in serum-free DMEM media (3.5×10^6 cells/mL). The cell suspension was mixed 1:1 with Matrigel solution (Bio Scientific). Aliquots (20 μL containing 3.5×10^4 cells) were placed into 6-well tissue-culture dishes to form well-defined droplets and incubated at 37° C. for 5 min to enable semi-solidification. Migration media was freshly made as DMEM containing 20% fetal bovine serum, epidermal growth factor 10 pg/mL, hydrocortisone 0.4 ng/mL, vascular endothelial growth factor (VEGF, 1 pg/mL), basic fibroblast growth factor (bFGF, 20 pg/mL), insulin-like growth factor-1 (40 pg/mL), ascorbic acid (2 ng/mL) and heparin (45 ng/mL). Compounds were added in migration media (3 mL/well) and plates were then incubated for 24 h. Cells that migrated out of droplets were scored using phase-contrast microscopy and digital image analysis (Olympus). • 6. Real-time RT PCR: Cell droplets from migration assays were collected, and total RNA was extracted using Tri Reagent (Astral Scientific) according to the manufacturer's protocol. RNA samples were treated with DNase (Promega) and gene expression was quantified using an Express Onestep Superscript qRT-PCT kit (Invitrogen) and gene-specific primers: heparanase (forward) […] and (reverse) GCAGCAACTTTGGCATTTC, integrin-α3 (forward) […] and (reverse) […], actin (forward) […] and (reverse) […]. The cycling conditions (Roto-Gene™ 6000; Corbett Research) were as follows: 95° C. (15 min); 40 cycles of denaturation (95° C., 30 s); annealing (60° C., 1 min); elongation (72° C., 1 min). […]

Series [2] has as its system MDA-MB-231 breast cancer cell xenografts. Nature of the series: In vivo evaluation of compound 15, MDA-MB-231 xenografts in nude mice. Particulars: 10 mg/kg intraperitoneally, 39 days. As for the experimental part: One of the synthesised compounds given in Table 1 (compound 15, reproduced below) was tested for its activity in inhibiting the proliferation of MDA-MB-231 breast cancer cell xenografts in nude mice.
female nu/nu Balb/c mice of 5-6 weeks age at the commencement of the experiment (one week acclimatization after arrival in the animal facility).
two groups of 8 mice each.
MDA-MB-231 cells, 4×10^5 cells/100 μL (Matrigel:phosphate-buffered saline, 1:1) per mouse; subcutaneous injection into the mammary pad.
4 days after cancer cell xenografting compound 15 was administered intraperitoneally at a dose of 10 mg/kg in corn oil (Sigma, containing 2% dimethylsulfoxide). Dosing continued for 6 days per week, for a total of 39 days. Control animals received 2% dimethylsulfoxide in corn oil, 100 μL per 20 g mouse for the same duration.
Body weights were measured daily and tumour sizes every three days (with calipers).

Series [3] has as its system human MDA-MB-231 breast cancer cell xenografts. Nature of the series: In vivo dose-response study of compound 29, MDA-MB-231 xenografts in nude mice. Particulars: 38 days. Here is the method:
One of the synthesised compounds given in Table 1 (compound 29, reproduced below) was the subject of an in vivo dose-response study in nude mice with human MDA-MB-231 breast cancer cell xenografts. One group received compound 15 in parallel.
nu/nu Balb/c; Age: 6 weeks at commencement of study; Gender: female
control, compound 29 (2.5 mg/kg), compound 29 (10 mg/kg), compound 29 (40 mg/kg) and compound 15 (10 mg/kg); 5 mice/group
human MDA-MB-231 cells, 4×10^5 cells/100 μl (Matrigel:PBS 1:1)/mouse, subcutaneous injection into the 4th mammary fat pad.
after 4 days animals received compound 29 at 40, 10 and 2.5 mg/kg doses (in corn oil, Sigma, and 8% DMSO), or compound 15 at 10 mg/kg in corn oil at 4% DMSO, 6 days each week, for 38 days. Control: 8% DMSO in corn oil.
weighed six days a week; tumour sizes measured with calipers every 3 to 4 days.

`O=C(O)CCCCCCCCCCCCCCCNC(=O)NC1CCCCC1` [Compound 5, 16-[(cyclohexylcarbamoyl)amino]hexadecanoic acid]: half-maximal inhibition in series [1] (Homo sapiens) (IC50) was put at 2780 ± 190 nM. As for `O=C(O)CCCCCCCCCCCCCCCNC(=O)NCCc1ccccc1` [Compound 3, 16-{[(2-phenylethyl)carbamoyl]amino}hexadecanoic acid], the IC50 in series [1] (Homo sapiens) stood at 1500 ± 80 nM. The same measure, in the same setting: in the case of `O=C(O)CCCCCCCCCCCCCCCNC(=O)Nc1ccc(Cl)c(Cl)c1` [Compound 28, 16-{[(3,4-dichlorophenyl)carbamoyl]amino}hexadecanoic acid] it was 1200 nM; in that of `CC(C)(C)NC(=O)NCCCCCCCCCCCCCCCC(=O)O` [Compound 7, 16-[(tert-butylcarbamoyl)amino]hexadecanoic acid], 1220 ± 80 nM.

With `O=C(O)CCCCCCCCCCCCCCCNC(=O)Nc1ccccc1` [Compound 6, 16-[(phenylcarbamoyl)amino]hexadecanoic acid], the IC50 in series [1] (Homo sapiens) came to 1200 nM.

On to `CCNC(=O)NCCCCCCCCCCCCCCCC(=O)OCC` [Compound 20, Ethyl 16-[(ethylcarbamoyl)amino]hexadecanoate], for which it took 660 ± 30 nM to reach half-maximal inhibition in series [1] (Homo sapiens) (IC50). In series [1] (Homo sapiens), `O=C(O)CCCCCCCCCCCCCCCNC(=O)Nc1ccc(I)cc1` [Compound 26, 16-{[(4-iodophenyl)carbamoyl]amino}hexadecanoic acid] registered a half-maximal inhibitory concentration (IC50) of 1000 nM. Same read-out and setting: in the case of `CCOC(=O)CCCCCCCCCCCCCCCNC(=O)Nc1ccc(Cl)cc1` [Compound 13, Ethyl 16-{[(4-chlorophenyl)carbamoyl]amino}hexadecanoate] it was 80 ± 10 nM. As to `CCOC(=O)CCCCCCCCCCCCCCCNC(=O)NC(C)(C)C` [Compound 4, Ethyl 16-[(tert-butylcarbamoyl)amino]hexadecanoate], the IC50 in series [1] (Homo sapiens) was 6920 ± 310 nM.

In series [1] (Homo sapiens), `CCOC(=O)CCCCCCCCCCCCCCCNC(=O)NCc1ccccc1` [Compound 10, Ethyl 16[(benzylcarbamoyl)amino]hexadecanoate] had an IC50 of 870 ± 80 nM. Compound `O=C(O)CCCCCCCCCCCCCCCNC(=O)Nc1ccc(Cl)cc1` [Compound 14, 16-{[(4-chlorophenyl)carbamoyl]amino}hexadecanoic acid] returned an IC50 in series [1] (Homo sapiens) of 810 nM. In series [1] (Homo sapiens), `CCOC(=O)CCCCCCCCCCCCCCCNC(=O)NCCc1ccccc1` [Compound 2, Ethyl 16-{[(2-phenylethyl)carbamoyl]amino}hexadecanoate] yielded an IC50 of 1110 ± 260 nM. “16-{[(4-methoxyphenyl)carbamoyl]amino}hexadecanoic acid [Compound 24]” displayed an IC50 in series [1] of 1300 nM.

Turning to `CCOC(=O)CCCCCCCCCCCCCCCNC(=O)Nc1ccccc1` [Compound 9, Ethyl 16-[(phenylcarbamoyl)amino]hexadecanoate], in series [1] (Homo sapiens), inhibition was half-maximal at 1590 ± 280 nM (IC50). Consider `CCOC(=O)CCCCCCCCCCCCCCCNC(=O)Nc1ccc(F)cc1` [Compound 11, Ethyl 16-{[(4-fluorophenyl)carbamoyl]amino}hexadecanoate], for which the IC50 in series [1] (Homo sapiens) was 760 ± 70 nM. As to `CCOC(=O)CCCCCCCCCCCCCCCNC(=O)Nc1ccc(C)cc1` [Compound 15, Ethyl 16-{[(4-methylphenyl)carbamoyl]amino}hexadecanoate], in series [2] (6 days per week), the dose limiting toxicity result is on record as “no dose limiting toxicity”. The “mouse body weight loss” value in series [2] (6 days per week, FIG. 4) was “greater with compound 15 than control”. Further, in series [2], the tumour metastasis entry was “appears to suppress tumour metastasis”. Also, the “primary tumour growth (growth rate and volume)” value in series [2] (FIG. 5) is on record as “did not prevent primary tumour growth”. Besides, the “mice with white small foci in the abdominal cavity” value in series [2] (controls 7/8) is on record as 1/8. For the same compound, the “toxicity of the treatment (growth rates)” value in series [3] (all dose groups) is listed as “non-toxic”. In addition, in series [3] (compound 15 10 mg/kg IP, FIG. 8), the “mouse body weight gain or loss” value is on record as “lost weight at the early stage of IP injections”. Besides, the IC50 in series [1] (Homo sapiens) worked out at 20 nM. In series [1] (Homo sapiens), `CCOC(=O)CCCCCCCCCCCCCCCNC(=O)NC12CC3CC(CC(C3)C1)C2` [Compound 17, Ethyl 16-[(tricyclo[3.3.1.1^3,7]dec-1-ylcarbamoyl)amino]hexadecanoate] had an IC50 of 2750 ± 270 nM. `O=C(O)CCCCCCCCCCCCCCCNC(=O)NCc1ccccc1` [Compound 8, 16-[(benzylcarbamoyl)amino]hexadecanoic acid] came in with an IC50 in series [1] (Homo sapiens) of 720 ± 10 nM. Consider `CCOC(=O)CCCCCCCCCCCCCCCNC(=O)NC1CCCCC1` [Compound 1], for which, in series [1] (Homo sapiens), half-maximal inhibition (IC50) was put at 850 ± 20 nM. Same read-out and setting: the same measure for `O=C(O)CCCCCCCCCCCCCCCNC(=O)Nc1ccc(F)cc1` [Compound 12, 16-{[(4-fluorophenyl)carbamoyl]amino}hexadecanoic acid]: 1000 nM.
